Tests used:
[1] = tested on: GR with NCOA2 and UBR5; test: Co-immunoprecipitation time course for GR; assay type: cell-based, human; conditions: U937 GFP-GR, 0, 6, 12, 16, 24 h dexamethasone
Protocol: We performed time course co-immunoprecipitation experiments for GR and blotted for NCOA2, GR, and UBR5 at 0, 6, 12, 16, and 24 h following dexamethasone treatment. […] Unlike RARA, which binds constitutively to chromatin, GR is sequestered in the cytoplasm and rapidly translocates to the nucleus following agonist binding.[44],[45]
(§1) Blotting was done as described above.

[2] = tested on: dexamethasone-regulated gene expression in A549 cells; test: RNA sequencing of A549 cells; assay type: cell-based, human; conditions: A549, 0, 24, 48 h
Protocol: Cell lines were expanded, treated with ligand, and incubated at 37C. Cells were pelleted by centrifugation for 5 minutes, washed with cold PBS, and RNA was isolated by RNeasy kit (Qiagen) per manufacturer’s instructions. RNA was sent to Novogene for library preparation and sequencing, or prepared for sequencing (NEBNext, New England Biolabs) and sequenced on an Illumina NextSeq 550 sequencer.
Paired-end reads were aligned to the hg38.p13[81],[82] reference genome with the STAR[83] (v5.2.7b) aligner as part of the RSEM[99] command line tool. Gene transcript abundance was further quantified from aligned fragments using RSEM to generate a gene-by-sample matrix of expected counts. Differential expression was tested, as with the ChIP-seq data, using the DESeq[88],[93]2 and ashr[94] pipeline, this time calculating sample-specific scale factor offset using the method of median-ratio as implemented in the R package EBSeq[100] (v1.36.0). For plotting in heatmaps, genes were selected based on ChIP-seq peak annotation and subset.

[3] = tested on: GR and UBR5; test: UBR5/GR interaction in cells (BRET); assay type: cell-based, human; conditions: ± dexamethasone, n = 3
From the text: Bioluminescence resonance energy transfer (BRET) experiments were done using the NanoBRET PPI kit (Promega, N1821) according to manufacturer’s instructions.

[4] = tested on: GR and UBR5 on chromatin in A549 cells; test: ChIP-seq of GR and UBR5 in A549 cells; assay type: cell-based, human
Protocol: Cell lines were expanded (up to 50 million), treated with ligand, and incubated at 37 °C. Cells were pelleted by centrifugation for 5 minutes, washed twice with cold PBS, and resuspended, in 5 ml of room temperature PBS. 20 μl of 0.5M Disuccinimidyl glutarate (DSG) (ThermoFisher), was added and incubated for 30 minutes at room temperature. Cells were pelleted by centrifugation and resuspended in 8.325 ml of PBS and 8.325 ml of 2% formaldehyde and incubated for 30 minutes at room temperature. Cross-linking was quenched by the addition of 1665 μl of 1 M Tris-HCl pH 8.0 and 832.5 μl of 2.5 M glycine. Cells were pelleted and washed twice with PBS. Cross-linked cells were resuspended in LB1 Buffer (50mM HEPES-KOH, pH7.5, 140mM NaCl, 1mM EDTA, 10% Glycerol, 0.5% NP-40, 0.25% Triton X-100 in distilled water) and rotated for 10 minutes at 4C. Cells were pelleted and resuspended in LB2 (10mM Tris-HCl, pH 8.0, 200mM NaCl, 1mM EDTA, 0.5mM EGTA in distilled water) and rotated for 10 minutes at 4C. Cells were pelleted and resuspended in LB3 (10mM Tris-HCL, pH 8.0, 100mM NaCl, 1mM EDTA, 0.5mM EGTA, 0.1% Na-deoxycholate, 0.5% Na-Lauroylsarcosine, 1% Triton X-100, in distilled water) sonicated (Covaris, E220). […] Fragment length and concentrations were assessed using TapeStation (Agilent) and Qubit (ThermoFisher), and libraries were sequenced on an Illumina NextSeq 550 sequencer. […]

[5] = tested on: GR; test: GR degradation (western blot A549; GFP-GR reporter); assay type: cell-based, human
Protocol: Reporter cell lines were seeded in triplicate at a density of 1 million cells/ml in 100 μl per well in a 96 well plate and measured once. Ligand was added by Digital Dispenser (Tecan), and incubated at 37°C for the appropriate time before reading by flow cytometry. Cells were analyzed for GFP vs mCherry expression. GFP expression was normalized to mCherry signal and ligand treatments were compared to DMSO controls.
Membranes were blocked for 30 minutes to 1 hour at room temperature in Odyssey Blocking Buffer/PBS (LI-COR Biosciences), and incubated with primary antibodies at 4 °C overnight. Stained membranes were washed three times in Tris-buffered saline with Tween 20 (TBS-T) and incubated for 1 hour at room temperature with secondary IRDye-conjugated antibodies (LI-COR Biosciences). Membranes were washed three times in TBS-T before imaging (Odyssey Imaging System, LI-COR Biosciences).

[6] = tested on: androgen receptor (AR); conditions: testosterone, ref [48]-[50]; cited from earlier work
From the text: Instead, it is shuttled […] the nucleus following agonist binding and transcriptional activation.[48]–[50] The hydrophobic cleft of AR has several amino acid differences from other NRs, which preferentially accommodate bulkier FxxLF motifs instead of the classic LxxLL.[51],[52] We hypothesized that these sequence differences might also prevent UBR5-mediated degradation and asked whether altering the hydrophobic cleft in AR could c ...

[7] = tested on: AR^RARA mutant and UBR5; test: Co-immunoprecipitation of UBR5 with AR-RARA mutants; assay type: cell-based, human; conditions: ± CI-4AS-1 and MG132
From the text: as §1

[8] = tested on: androgen receptor (AR); test: AR fluorescent reporter degradation; assay type: cell-based, human; conditions: n = 3; for AR reporter degradation, significance: CI-4AS-1 5, 10, 20 uM
Protocol: AR reporters with substitutions to the critical set of residues in the hydrophobic cleft (AR V713, V716, V730, and M734) were generated to match those found in RARA, RXRA, or GR. The wild-type AR reporter was not degraded following treatment with the synthetic AR agonist CI-4AS-1. […] Taken together, the data underscore the essentiality of the NR hydrophobic cleft for UBR5 binding and NR degradation.
Cells were analyzed for GFP vs mCherry expression.

[9] = tested on: UBR5-ER; test: In vitro FLAG-UBR5 pull-down of His-tagged ER; assay type: binding, human; conditions: 50 μM ER ligand
Protocol: 12 μL of FLAG M2 slurry were equilibrated with binding buffer (25 mM HEPES pH 7.4, 125 mM NaCl, 0.05% TWEEN-20). The resin was pelleted and excess buffer removed. 60 μL of fresh binding buffer was re-added, followed by addition of 15 pmol (2.5 μL ofa6 μM solution) of purified FLAG-UBR5 protein and incubated on a rotating wheel at 4°C for 60–90 minutes. The resin was pelleted, excess buffer removed, and 150 μL fresh binding buffer (supplemented with 50 μM ligand of interest or DMSO) added, followed by 150 pmol protein (binding partner protein of interest) and incubated for another 60 minutes. The resin was pelleted, excess buffer removed and washed with 400 μL of binding buffer (supplemented with ligand of interest or DMSO), and this process was repeated three times. The resin was pelleted, excess buffer removed and 45 μL of binding buffer supplemented with 1 mg/mL 3xFLAG peptide was added to elute proteins over 30 minutes on a rotating wheel at room temperature. The resin was pelleted, and 40 μL of the supernatant was collected and mixed with 12 μL of 5xSDS gel loading buffer. 6 μL of these samples were applied to SDS-PAGE on a 4–20% gradient gel (Biorad). The gel was transferred to a nitrocellulose membrane using the Trans-Blot Turbo Transfer System (Biorad). […]

C[C@@H]1C[C@H]2[C@@H]3CCC4=CC(=O)C=C[C@]4(C)[C@@]3(F)[C@@H](O)C[C@]2(C)[C@@]1(O)C(=O)CO [dexamethasone]
sequential binding of NCOA2 and UBR5 to GR [1]: GR sequentially bound NCOA2 and then UBR5 | effect of UBR5 knockdown on dexamethasone-regulated gene expression [2]: alter dexamethasone-regulated gene expression | UBR5 binding to GR in cells [3]: promoted binding of UBR5 to GR in cells | GR ChIP-seq peaks ([4]; A549, 15 min and 24 h dexamethasone): strikingly gained 15 min after addition of dexamethasone and subsequently decreased following sustained (24 h) dexamethasone treatment | UBR5 ChIP-seq peaks ([4]; A549, 15 min dexamethasone): strongly increased after 15 min of dexamethasone treatment | effect of UBR5 shRNAs on GR degradation ([5]; A549 western blot and reporter): rescued GR degradation | GR reporter degradation with predicted degron (cleft) mutations ([5]; GFP-GR mutants, likewise mutation of the UBR5 HECT domain): impaired dexamethasone-induced GR degradation

C[C@]12CC[C@H]3[C@@H](CCC4=CC(=O)CC[C@@]43C)[C@@H]1CC[C@@H]2O [testosterone]
AR stability / ligand-induced degradation [6]: stabilized by its endogenous ligand testosterone and does not undergo ligand-induced degradation

CN1C(=O)C=C[C@]2(C)[C@H]3CC[C@]4(C)[C@@H](C(=O)Nc5ccccc5Cl)CC[C@H]4[C@@H]3CC[C@@H]12 [CI-4AS-1]
UBR5 binding to AR^RARA mutants [7]: strengthened binding in the presence of agonist | AR reporter degradation, significance ([8]; AR V713F V730L M734V (RXR matched)): **** (**** p<0.00005) | AR reporter degradation, significance ([8]; AR V713I V730I M734I (RARA matched)): ** (**p<0.005) | AR reporter degradation, significance ([8]; AR V713I V730L (GR matched)): **** (**** p<0.00005) | degradation of mutant AR reporters ([8]; hydrophobic cleft matched to RARA, RXRA or GR): efficiently degraded | degradation of wild-type AR reporter ([8]; wild-type AR): not degraded

C[C@]12CC[C@@H]3c4ccc(O)cc4CC[C@H]3[C@@H]1CC[C@@H]2O [estradiol, beta-Estradiol]
UBR5-ER interaction [9]: induced by estradiol
